Source: patent publication US8802597B2, “Herbicidal pyrimidines” (E I du Pont de Nemours and Company, priority 2003, dated 2014)

What was measured:
Assay in all cases: Test A pre/postemergence
Assay type in all cases: in vivo
[1] = system: giant foxtail (Setaria faberi)
In short: (§1)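 Soil: loam blended with sand. Formulation: non-phytotoxic solvent mixture with surfactant. Timing: preemergence soil spray plus concurrent postemergence spray (plants 2–10 cm, 1–2 leaves). Readout: visual injury versus untreated controls at ~10 days, 0–100.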

[2] = system: morningglory (Ipomoea spp.)
In short: as §1

[3] = system: barnyardgrass (Echinochloa crus-galli)
In short: as §1

[4] = system: velvetleaf (Abutilon theophrasti)
In short: as §1

[5] = system: crabgrass (Digitaria sanguinalis)
In short: as §1

[6] = system: redroot pigweed (Amaranthus retroflexus)
In short: as §1

[7] = Postemergence, 250 g ai/ha, 0 to 100 scale (0 no effect, 100 complete control)
[8] = Postemergence, 1000 g ai/ha, 0 to 100 scale (0 no effect, 100 complete control)
[9] = Preemergence, 250 g ai/ha, 0 to 100 scale where 0 is no effect and 100 is complete control, approximately ten days
[10] = Preemergence, 1000 g ai/ha, 0 to 100 scale (0 no effect, 100 complete control)
[11] = Postemergence, 125 g ai/ha, 0 to 100 scale (0 no effect, 100 complete control)
[12] = Postemergence, 500 g ai/ha, 0 to 100 scale (0 no effect, 100 complete control)
[13] = Preemergence, 125 g ai/ha, 0 to 100 scale where 0 is no effect and 100 is complete control, approximately ten days
[14] = Preemergence, 500 g ai/ha, 0 to 100 scale where 0 is no effect and 100 is complete control, approximately ten days

For `COC(=O)c1nc(-c2ccc(F)cc2)nc(N)c1Cl` [Compound 43], the “Plant response rating, Foxtail, Giant” value [1, 7] was 10, the “Plant response rating, Foxtail, Giant” value [1, 8] was 10 and the “Plant response rating, Foxtail, Giant” value [1, 9] was 0. The “Plant response rating, Foxtail, Giant” value [1, 10] was 10, the “Plant response rating, Morningglory” value [2, 7] was 20 and the “Plant response rating, Morningglory” value [2, 8] was 45. The “Plant response rating, Morningglory” value [2, 9] was 0, the “Plant response rating, Morningglory” value [2, 10] was 45 and the “Plant response rating, Barnyardgrass” value [3, 7] was 10. The “Plant response rating, Barnyardgrass” value [3, 8] was 20, the “Plant response rating, Barnyardgrass” value [3, 9] was 0 and the “Plant response rating, Barnyardgrass” value [3, 10] was 10. The “Plant response rating, Velvetleaf” value [4, 7] was 50, the “Plant response rating, Velvetleaf” value [4, 8] was 50 and the “Plant response rating, Velvetleaf” value [4, 9] was 0. The “Plant response rating, Velvetleaf” value [4, 10] was 20, the “Plant response rating, Crabgrass” value [5, 7] was 10 and the “Plant response rating, Crabgrass” value [5, 8] was 30. For the same compound, the “Plant response rating, Crabgrass” value [5, 9] was 0, the “Plant response rating, Crabgrass” value [5, 10] was 10 and the “Plant response rating, Pigweed” value [6, 7] was 60. For the same compound, the “Plant response rating, Pigweed” value [6, 8] was 85, the “Plant response rating, Pigweed” value [6, 9] was 0 and the “Plant response rating, Pigweed” value [6, 10] was 75.

With `CCOC(=O)c1nc(-c2ccc(Cl)cc2)nc(N)c1I` [Compound 137] the “Plant response rating, Foxtail, Giant” value [1, 11] was 0, the “Plant response rating, Foxtail, Giant” value [1, 12] was 0 and the “Plant response rating, Foxtail, Giant” value [1, 13] was 0. The “Plant response rating, Foxtail, Giant” value [1, 14] was 0, the “Plant response rating, Morningglory” value [2, 11] was 5 and the “Plant response rating, Morningglory” value [2, 12] was 30. For the same compound, the “Plant response rating, Morningglory” value [2, 13] was 0, the “Plant response rating, Morningglory” value [2, 14] was 0 and the “Plant response rating, Barnyardgrass” value [3, 11] was 0. The “Plant response rating, Barnyardgrass” value [3, 12] was 0, the “Plant response rating, Barnyardgrass” value [3, 13] was 0 and the “Plant response rating, Barnyardgrass” value [3, 14] was 0. The “Plant response rating, Velvetleaf” value [4, 11] was 45, the “Plant response rating, Velvetleaf” value [4, 12] was 60 and the “Plant response rating, Velvetleaf” value [4, 13] was 0. For the same compound, the “Plant response rating, Velvetleaf” value [4, 14] was 0, the “Plant response rating, Crabgrass” value [5, 11] was 0 and the “Plant response rating, Crabgrass” value [5, 12] was 0. The “Plant response rating, Crabgrass” value [5, 13] was 0, the “Plant response rating, Crabgrass” value [5, 14] was 0 and the “Plant response rating, Pigweed” value [6, 11] was 25. For the same compound, the “Plant response rating, Pigweed” value [6, 12] was 45, the “Plant response rating, Pigweed” value [6, 13] was 0 and the “Plant response rating, Pigweed” value [6, 14] was 0.

With `CC(C)OC(=O)c1nc(-c2ccc(Cl)cc2)nc(N)c1Cl` [Compound 102] the “Plant response rating, Foxtail, Giant” value [1, 11] was 0, the “Plant response rating, Foxtail, Giant” value [1, 12] was 0 and the “Plant response rating, Foxtail, Giant” value [1, 13] was 0. For the same compound, the “Plant response rating, Foxtail, Giant” value [1, 14] was 0, the “Plant response rating, Morningglory” value [2, 11] was 0 and the “Plant response rating, Morningglory” value [2, 12] was 15. The “Plant response rating, Morningglory” value [2, 13] was 0, the “Plant response rating, Morningglory” value [2, 14] was 0 and the “Plant response rating, Barnyardgrass” value [3, 11] was 0. For the same compound, the “Plant response rating, Barnyardgrass” value [3, 12] was 0, the “Plant response rating, Barnyardgrass” value [3, 13] was 0 and the “Plant response rating, Barnyardgrass” value [3, 14] was 0. For the same compound, the “Plant response rating, Velvetleaf” value [4, 11] was 45, the “Plant response rating, Velvetleaf” value [4, 12] was 70 and the “Plant response rating, Velvetleaf” value [4, 13] was 10. The “Plant response rating, Velvetleaf” value [4, 14] was 20, the “Plant response rating, Crabgrass” value [5, 11] was 10 and the “Plant response rating, Crabgrass” value [5, 12] was 10. The “Plant response rating, Crabgrass” value [5, 13] was 0, the “Plant response rating, Crabgrass” value [5, 14] was 0 and the “Plant response rating, Pigweed” value [6, 11] was 50. For the same compound, the “Plant response rating, Pigweed” value [6, 12] was 65, the “Plant response rating, Pigweed” value [6, 13] was 10 and the “Plant response rating, Pigweed” value [6, 14] was 15.

With `COCCOCCOC(=O)c1nc(C2CC2)nc(N)c1Cl` [Compound 141] the “Plant response rating, Foxtail, Giant” value [1, 11] was 40, the “Plant response rating, Foxtail, Giant” value [1, 12] was 85 and the “Plant response rating, Foxtail, Giant” value [1, 13] was 5. For the same compound, the “Plant response rating, Foxtail, Giant” value [1, 14] was 85, the “Plant response rating, Morningglory” value [2, 11] was 90 and the “Plant response rating, Morningglory” value [2, 12] was 90. The “Plant response rating, Morningglory” value [2, 13] was 85, the “Plant response rating, Morningglory” value [2, 14] was 95 and the “Plant response rating, Barnyardgrass” value [3, 11] was 80. For the same compound, the “Plant response rating, Barnyardgrass” value [3, 12] was 90, the “Plant response rating, Barnyardgrass” value [3, 13] was 35 and the “Plant response rating, Barnyardgrass” value [3, 14] was 75. The “Plant response rating, Velvetleaf” value [4, 11] was 85, the “Plant response rating, Velvetleaf” value [4, 12] was 100 and the “Plant response rating, Velvetleaf” value [4, 13] was 80. The “Plant response rating, Velvetleaf” value [4, 14] was 85, the “Plant response rating, Crabgrass” value [5, 11] was 25 and the “Plant response rating, Crabgrass” value [5, 12] was 80. For the same compound, the “Plant response rating, Crabgrass” value [5, 13] was 60, the “Plant response rating, Crabgrass” value [5, 14] was 85 and the “Plant response rating, Pigweed” value [6, 11] was 90. The “Plant response rating, Pigweed” value [6, 12] was 100, the “Plant response rating, Pigweed” value [6, 13] was 80 and the “Plant response rating, Pigweed” value [6, 14] was 85.

In the case of `CC(C)N.Nc1nc(C2CC2)nc(C(=O)O)c1Cl` [Compound 144], the “Plant response rating, Foxtail, Giant” value [1, 11] was 70, the “Plant response rating, Foxtail, Giant” value [1, 12] was 80 and the “Plant response rating, Foxtail, Giant” value [1, 13] was 35. The “Plant response rating, Foxtail, Giant” value [1, 14] was 80, the “Plant response rating, Morningglory” value [2, 11] was 85 and the “Plant response rating, Morningglory” value [2, 12] was 95. For the same compound, the “Plant response rating, Morningglory” value [2, 13] was 85, the “Plant response rating, Morningglory” value [2, 14] was 95 and the “Plant response rating, Barnyardgrass” value [3, 11] was 60. The “Plant response rating, Barnyardgrass” value [3, 12] was 90, the “Plant response rating, Barnyardgrass” value [3, 13] was 65 and the “Plant response rating, Barnyardgrass” value [3, 14] was 80. The “Plant response rating, Velvetleaf” value [4, 11] was 95, the “Plant response rating, Velvetleaf” value [4, 12] was 100 and the “Plant response rating, Velvetleaf” value [4, 13] was 75. The “Plant response rating, Velvetleaf” value [4, 14] was 85, the “Plant response rating, Crabgrass” value [5, 11] was 40 and the “Plant response rating, Crabgrass” value [5, 12] was 80. The “Plant response rating, Crabgrass” value [5, 13] was 75, the “Plant response rating, Crabgrass” value [5, 14] was 95 and the “Plant response rating, Pigweed” value [6, 11] was 85. For the same compound, the “Plant response rating, Pigweed” value [6, 12] was 100, the “Plant response rating, Pigweed” value [6, 13] was 75 and the “Plant response rating, Pigweed” value [6, 14] was 85.
